The values below are quoted from earlier work in patent US20070117837A1, “Process for the preparation of amorphous form of a platelet aggregation inhibitor drug” (EGIS GYOGYSZERGYAR RT., priority 2003, published 2007).

The conditions of this data set: amorphous form compared with its morphologically uniform crystalline forms.

Structures are written as SMILES.

Take `CC(C)c1c(C(=O)Nc2ccccc2)c(-c2ccccc2)c(-c2ccc(F)cc2)n1CC[C@@H](O)C[C@@H](O)CC(=O)O` [atorvastatine calcium]: the biological availability result was “better”.
